Data published in the OPERA property sets (Mansouri et al. 2018).
Values after ≈ are worked out from the molar mass of the structure shown.

| Compound | melting point [°C] | boiling point [°C] | further results |
| --- | --- | --- | --- |
| C=CC(=O)N(C)C |  |  | ready biodegradability: not readily biodegradable |
| O=C(O)C=Cc1ccc(Cl)cc1 | 249 |  |  |
| C=CCO | -129 | 97 | log10 Henry constant (atm·m³/mol): -5.3; log10 vapour pressure (mmHg): 1.42; ready biodegradability: readily biodegradable |
| O=C(O)CSc1ncccn1 |  |  | ready biodegradability: readily biodegradable |
| CCN(CC)CN(CC)CC |  | 166 |  |
| O=C(Nc1ccc(F)cc1F)c1cccnc1Oc1cccc(C(F)(F)F)c1 | 160 |  | log10 Henry constant (atm·m³/mol): -6.49; log10 vapour pressure (mmHg): -7.5 |
| CC1=C(C(=O)Nc2ccccc2)SCCO1 | 91.5 |  | log10 Koc (L/kg): 2.41; log10 vapour pressure (mmHg): -6.82; ready biodegradability: readily biodegradable |
| CC(C)NNC(C)C |  | 125 |  |
| CC(=O)Nc1ccc(C#N)cc1 | 207 |  |  |
| CC1CCOC(C)O1 (stereo not given) |  | 116 |  |
| CC1(C)CC=CC1 |  | 88 |  |
| Oc1c(F)c(F)c(F)c(F)c1F | 32.8 | 146 | log10 vapour pressure (mmHg): 0.464 |
| NC(=O)Cc1cccc2ccccc12 | 184 |  | log10 Koc (L/kg): 2 |
| Oc1c(F)cccc1F | 39.5 |  |  |
| Cc1ccc(Oc2ccc(C)cc2)cc1 | 51 | 285 |  |
| FC(F)(F)C(F)(F)C(Cl)Cl | -94 | 51.1 | log10 Henry constant (atm·m³/mol): -0.299; log10 vapour pressure (mmHg): 2.38 |
| Cc1nnc(C)s1 | 65 | 202 |  |
| CCc1ccc(C(c2ccc(CC)cc2)C(Cl)Cl)cc1 | 56 |  |  |
| CCC(=O)OCCOC(=O)CC |  | 211 |  |
| CC(C)(N=C=O)c1cccc(C(C)(C)N=C=O)c1 |  |  | log10 vapour pressure (mmHg): -2.49 |
| Clc1ccc(Cl)c(-c2c(Cl)c(Cl)cc(Cl)c2Cl)c1Cl |  |  | log10 Henry constant (atm·m³/mol): -4.62 |

| Compound | melting point [°C] | boiling point [°C] | further results |
| --- | --- | --- | --- |
| O=C(O)c1cccc(I)c1 | 188 |  |  |
| CCOCc1ccco1 |  | 149 |  |
| Cc1cc(C)cc([N+](=O)[O-])c1 | 75 | 274 |  |
| Cc1ccccc1CO[C@H]1C[C@]2(C(C)C)CC[C@@]1(C)O2 (single isomer, unassigned) |  | 313 | log10 Koc (L/kg): 2.6; log10 vapour pressure (mmHg): -4.12 |
| CC(=O)[C@@]1(O)CC[C@H]2[C@@H]3C[C@H](C)C4=CC(=O)C=C[C@]4(C)[C@@]3(F)[C@@H](O)C[C@@]21C | 297 |  |  |
| CNCc1ccco1 |  | 149 |  |
| C#CCCC#C | -6 | 86 |  |
| C1OCC2(CO1)COCOC2 | 48.3 |  |  |
| CC[C@H](C)C(=O)O[C@H]1CCC=C2C=C[C@H](C)[C@H](CC[C@@H]3C[C@@H](O)CC(=O)O3)[C@H]21 | 152 |  |  |
| CCC(O)CN (stereo not given) | 3 | 169 |  |
| COC(=O)c1ccccc1OC |  | 246 |  |
| CC1=C[C@@H](O)[C@@H]2C[C@H]1C2(C)C (racemic) | 65 |  |  |
| CCCCCCCC(=O)OCCCC | -42.9 | 240 |  |
| CCCCC(CC)COC(=O)CCCCCCCC(=O)OCC(CC)CCCC (stereo not given) | -78 |  | ready biodegradability: readily biodegradable |
| OC(O)C(Br)(Br)Br | 53.5 |  |  |
| c1ccc2c(c1)cnc1ccccc12 | 107 | 349 | log10 vapour pressure (mmHg): -4.68 |
| CC=CC(=O)O | 72 | 185 | log10 vapour pressure (mmHg): -0.542 |
| CCCCCCCCCCCCCC(CCCCCCCCCCCC)CCCCCCCCCCCC | 13.7 |  |  |
| C=CC(=O)NCO | 74.5 |  |  |
| NC(=O)c1cccc(N)c1 | 116 |  |  |
| CCCCC1CCC(O)C(OC)C1 (stereo not given) |  |  | ready biodegradability: readily biodegradable |

| Compound | melting point [°C] | boiling point [°C] | further results |
| --- | --- | --- | --- |
| O=C(O)c1ccc(Cl)cc1[N+](=O)[O-] | 144 |  |  |
| Cc1cc([N+](=O)[O-])ccc1O | 96 |  |  |
| CC(C)CCSSCCC(C)C |  | 247 |  |
| Oc1ccc2c(c1)[nH]c1ccccc12 | 272 |  |  |
| O=C1CCCCCO1 | -18 | 215 | log10 vapour pressure (mmHg): -0.87; ready biodegradability: readily biodegradable |
| CCC1COC(Cn2cncn2)(c2ccc(Cl)cc2Cl)O1 (stereo not given) | 84 |  |  |
| c1cc[nH]c1 | -23.4 | 130 | log10 Henry constant (atm·m³/mol): -4.74; log10 vapour pressure (mmHg): 0.922; ready biodegradability: readily biodegradable |
| CC1(C)[C@@H](OC(=O)CCC(=O)O)CC[C@]2(C)[C@H]3C(=O)C=C4[C@@H]5C[C@@](C)(C(=O)O)CC[C@]5(C)CC[C@@]4(C)[C@]3(C)CC[C@@H]12 | 292 |  |  |
| Cn1ccc(=O)n(C)c1=O | 120 |  | log10 vapour pressure (mmHg): -2.26 |
| CCCCOCCOCCO | -68 | 231 | log10 Henry constant (atm·m³/mol): -8.14; log10 vapour pressure (mmHg): -1.66; ready biodegradability: readily biodegradable |
| CCCCCCC(C)O (racemic) | 3.5 | 179 |  |
| CC(C)OC(=O)C(Cl)Cl |  | 164 |  |
| CCN(CC)C(C)=O |  | 186 | log10 Koc (L/kg): 1.84 |
| CC1CCCS1 (stereo not given) | -101 | 134 |  |
| c1ccc2c(c1)Sc1ccccc1N2CC1CN2CCC1CC2 (stereo not given) | 130 |  |  |
| O=c1oc2ccccc2c(O)c1C1CC(c2ccc(OCc3ccc(C(F)(F)F)cc3)cc2)Cc2ccccc21 (stereo not given) | 167 |  |  |
| Oc1cccc(O)c1O | 133 | 309 | log10 vapour pressure (mmHg): -3.32; ready biodegradability: readily biodegradable |
| CCOP(=O)(OCC)SCS(=O)CC (stereo not given) |  |  | solubility: 30.7 mM (≈ 8000 µg/mL) |
| CCCCCCOC(=O)CCCCC | -55 | 246 |  |
| O=C(O)c1ccc(C(=O)O)c(C(=O)O)c1 | 219 |  |  |
| Cc1cc(C)cc(Br)c1 |  | 204 |  |
